Measured values as given in PubChem BioAssay AID284 (DTP/NCI, 2004).
Where “and” joins values, the source holds several entries; their conditions need not be identical. Equal entries are not always repeated. Toxic doses and inconclusive results are not listed.

Test system: BDF1 mice, L1210/MTX-resistant leukemia ip, survival T/C
Assay: NCI In Vivo Anticancer Drug Screen. Data for tumor model L1210 Leukemia resistant to Methotrexate; NSC 740 (intraperitoneal) in B6D2F1 (BDF1) mice
Conditions: endpoint: mean survival time, higher = longer survival
Method: The antitumor activity of compounds was measured in mice bearing transplantable tumors. Survival or tumor size were measured and the results are expressed as the measurement made in the treated group (T) divided by the measurement made in the vehicle treated control group (C). The tumor model used in this assay is L1210 Leukemia resistant to Methotrexate; NSC 740 (intraperitoneal) in B6D2F1 (BDF1) mice

[1] = dose: 6.25 mg/kg/injection, schedule: Q01DX Z (ip), vehicle: carboxymethylcellulose (CMC)
[2] = dose: 10.0 mg/kg/injection, schedule: Q01DX010 (ip), vehicle: saline
[3] = dose: 12.5 mg/kg/injection, schedule: Q01DX Z (ip), vehicle: carboxymethylcellulose (CMC)
[4] = dose: 25.0 mg/kg/injection, schedule: Q01DX Z (ip), vehicle: carboxymethylcellulose (CMC)
[5] = dose: 50.0 mg/kg/injection, schedule: Q01DX Z (ip), vehicle: carboxymethylcellulose (CMC)
[6] = dose: 2.0 mg/kg/injection, schedule: Q01DX010 (ip), vehicle: other
[7] = dose: 2.0 mg/kg/injection, schedule: Q01DX Z (ip), vehicle: carboxymethylcellulose (CMC)
[8] = dose: 4.0 mg/kg/injection, schedule: Q01DX010 (ip), vehicle: other
[9] = dose: 7.5 mg/kg/injection, schedule: Q01DX Z (ip), vehicle: carboxymethylcellulose (CMC)
[10] = dose: 8.0 mg/kg/injection, schedule: Q01DX010 (ip), vehicle: other
[11] = dose: 10.0 mg/kg/injection, schedule: Q01DX Z (ip), vehicle: carboxymethylcellulose (CMC)
[12] = dose: 200.0 mg/kg/injection, schedule: Q01DX010 (ip), vehicle: saline
[13] = dose: 100.0 mg/kg/injection, schedule: Q01DX010 (ip), vehicle: saline
[14] = dose: 50.0 mg/kg/injection, schedule: Q01DX Z (ip), vehicle: saline

## Cc1c(O)ccc(=O)n1O
dose: 49.0 mg/kg/injection, schedule: Q01DX Z (ip), vehicle: other
  T/C: 98 % of control
dose: 73.0 mg/kg/injection, schedule: Q01DX Z (ip), vehicle: other
  T/C: 86 % of control
dose: 110.0 mg/kg/injection, schedule: Q01DX Z (ip), vehicle: other
  T/C: 114 % of control
dose: 165.0 mg/kg/injection, schedule: Q01DX Z (ip), vehicle: other
  T/C: 110 % of control
dose: 247.0 mg/kg/injection, schedule: Q01DX Z (ip), vehicle: other
  T/C: 96 % of control

## CCCCNc1ncnc2c1cnn2C
dose: 31.25 mg/kg/injection, schedule: Q01DX010 (ip), vehicle: saline
  T/C: 98 % of control and 102 % of control
dose: 62.5 mg/kg/injection, schedule: Q01DX010 (ip), vehicle: saline
  T/C: 90 % of control

## Cn1c(N)nc2nc[nH]c2c1=S
[1]
  T/C: 108 % of control
[2]
  T/C: 98 % of control
[3]
  T/C: 90 % of control
dose: 20.0 mg/kg/injection, schedule: Q01DX010 (ip), vehicle: saline
  T/C: 95 % of control
[4]
  T/C: 104 % of control
dose: 40.0 mg/kg/injection, schedule: Q01DX010 (ip), vehicle: saline
  T/C: 97 % of control
[5]
  T/C: 119 % of control
dose: 80.0 mg/kg/injection, schedule: Q01DX010 (ip), vehicle: saline
  T/C: 115 % of control

## CN(C)c1ccc(/C=C/c2ccnc3ccccc23)cc1
dose: 2.5 mg/kg/injection, schedule: Q01DX Z (ip), vehicle: saline
  T/C: 121 % of control
dose: 5.0 mg/kg/injection, schedule: Q01DX010 (ip), vehicle: saline
  T/C: 104 % of control
dose: 5.0 mg/kg/injection, schedule: Q01DX Z (ip), vehicle: saline
  T/C: 101 % of control
[2]
  T/C: 95 % of control

## C[n+]1c2ccccc2nc2c(N)cc(N)cc21
dose: 3.2 mg/kg/injection, schedule: Q01DX Z (ip), vehicle: other
  T/C: 101 % of control and 110 % of control
dose: 6.3 mg/kg/injection, schedule: Q01DX Z (ip), vehicle: other
  T/C: 116 % of control and 107 % of control
dose: 8.0 mg/kg/injection, schedule: Q01DX010 (ip), vehicle: saline
  T/C: 122 % of control
dose: 12.0 mg/kg/injection, schedule: Q01DX010 (ip), vehicle: saline
  T/C: 114 % of control
dose: 12.5 mg/kg/injection, schedule: Q01DX Z (ip), vehicle: other
  T/C: 103 % of control and 105 % of control
dose: 18.0 mg/kg/injection, schedule: Q01DX010 (ip), vehicle: saline
  T/C: 96 % of control

## NC(Cc1ccc(N(CCCl)CCCl)cc1)C(=O)O (stereo not given)
dose: 0.5 mg/kg/injection, schedule: Q01DX Z (ip), vehicle: carboxymethylcellulose (CMC)
  T/C: 112 % of control
dose: 1.0 mg/kg/injection, schedule: Q01DX Z (ip), vehicle: carboxymethylcellulose (CMC)
  T/C: 123 % of control
[6]
  T/C: 156 % of control
[7]
  T/C: 102 % of control
[8]
  T/C: 98 % of control
dose: 4.0 mg/kg/injection, schedule: Q01DX Z (ip), vehicle: carboxymethylcellulose (CMC)
  T/C: 90 % of control
dose: 5.0 mg/kg/injection, schedule: Q01DX Z (ip), vehicle: carboxymethylcellulose (CMC)
  T/C: 107 % of control
[9]
  T/C: 86 % of control
[10]
  T/C: 91 % of control
[11]
  T/C: 93 % of control

## CN(C)c1ccc(/C=C\c2ccnc3ccccc23)cc1
dose: 1.5 mg/kg/injection, schedule: Q01DX010 (ip), vehicle: saline
  T/C: 97 % of control
dose: 3.0 mg/kg/injection, schedule: Q01DX010 (ip), vehicle: saline
  T/C: 103 % of control
dose: 6.0 mg/kg/injection, schedule: Q01DX010 (ip), vehicle: saline
  T/C: 99 % of control

## CN(C)CC(=O)c1ccc(O)c(O)c1
[12]
  T/C: 117 % of control
dose: 300.0 mg/kg/injection, schedule: Q01DX010 (ip), vehicle: saline
  T/C: 109 % of control
dose: 450.0 mg/kg/injection, schedule: Q01DX010 (ip), vehicle: saline
  T/C: 104 % of control
dose: 675.0 mg/kg/injection, schedule: Q01DX010 (ip), vehicle: saline
  T/C: 111 % of control

## S=P(N1CCOCC1)(N1CC1)N1CC1
[7]
  T/C: 92 % of control
dose: 6.0 mg/kg/injection, schedule: Q01DX Z (ip), vehicle: carboxymethylcellulose (CMC)
  T/C: 93 % of control
dose: 8.0 mg/kg/injection, schedule: Q01DX Z (ip), vehicle: carboxymethylcellulose (CMC)
  T/C: 92 % of control
[11]
  T/C: 96 % of control
dose: 20.0 mg/kg/injection, schedule: Q01DX Z (ip), vehicle: carboxymethylcellulose (CMC)
  T/C: 95 % of control

## C[C@]12CC[C@H](OC3OC(CO)C(O)C(O)C3O)C[C@H]1CC[C@@H]1[C@@H]2CC[C@]2(C)[C@@H](C3=CCOC3=O)CC[C@]12O (stereo not given in full)
dose: 1.0 mg/kg/injection, schedule: Q01DX Z (ip), vehicle: saline
  T/C: 86 % of control

## O=C1C(NC(=O)C2CCCCC2)=C(N2CC2)C(=O)C(NC(=O)C2CCCCC2)=C1N1CC1
dose: 11.0 mg/kg/injection, schedule: Q01DX010 (ip), vehicle: saline
  T/C: 89 % of control
dose: 22.0 mg/kg/injection, schedule: Q01DX010 (ip), vehicle: saline
  T/C: 101 % of control
dose: 25.0 mg/kg/injection, schedule: Q01DX010 (ip), vehicle: saline
  T/C: 112 % of control
dose: 44.0 mg/kg/injection, schedule: Q01DX010 (ip), vehicle: saline
  T/C: 98 % of control
dose: 50.0 mg/kg/injection, schedule: Q01DX010 (ip), vehicle: saline
  T/C: 108 % of control
dose: 88.0 mg/kg/injection, schedule: Q01DX010 (ip), vehicle: saline
  T/C: 95 % of control
[13]
  T/C: 109 % of control
[12]
  T/C: 109 % of control

## O=C(Nc1ccc(C2=NCCCN2)cc1)c1ccc(NC(=O)c2ccc(C3=NCCCN3)cc2)cc1
[6]
  T/C: 168 % of control
[8]
  T/C: 218 % of control and 257 % of control
[10]
  T/C: 181 % of control and 221 % of control

## CN(N=O)C(=O)NC(C=O)C(O)C(O)C(O)CO (stereo not given)
dose: 12.5 mg/kg/injection, schedule: Q01DX010 (ip), vehicle: saline
  T/C: 100 % of control
[14]
  T/C: 106 % of control
[13]
  T/C: 100 % of control
dose: 100.0 mg/kg/injection, schedule: Q01DX Z (ip), vehicle: saline
  T/C: 97 % of control

## CC1(C)N=C(N)N=C(N)N1c1cccc(Br)c1
[7]
  T/C: 97 % of control
[1]
  T/C: 109 % of control
[3]
  T/C: 98 % of control
[4]
  T/C: 98 % of control
[5]
  T/C: 92 % of control

## C[C@]12C=CC(=O)C=C1CC[C@@H]1[C@@H]2C(=O)C[C@@]2(C)[C@H]1CC[C@]2(O)C(=O)CO
dose: 25.0 mg/kg/injection, schedule: Q01DX010 (sc), vehicle: steriod suspending solution
  T/C: 90 % of control

## C[C@H](N)C(=O)N[C@@H]1[C@H]2C(=C(O)C[C@@H](O)[C@@H]2O)C(=O)O[C@@H]1C
dose: 500.0 mg/kg/injection, schedule: Q01DX Z (ip), vehicle: saline
  T/C: 120 % of control
dose: 600.0 mg/kg/injection, schedule: Q01DX Z (ip), vehicle: saline
  T/C: 174 % of control and 187 % of control
dose: 1000.0 mg/kg/injection, schedule: Q01DX Z (ip), vehicle: saline
  T/C: 102 % of control and 110 % of control
dose: 1200.0 mg/kg/injection, schedule: Q01DX Z (ip), vehicle: saline
  T/C: 121 % of control and 122 % of control

## CS(=O)(=O)OCCCl
dose: 7.5 mg/kg/injection, schedule: Q01DX Z (ip), vehicle: saline
  T/C: 107 % of control
dose: 10.0 mg/kg/injection, schedule: Q01DX Z (ip), vehicle: saline
  T/C: 111 % of control
dose: 15.0 mg/kg/injection, schedule: Q01DX Z (ip), vehicle: saline
  T/C: 109 % of control
dose: 20.0 mg/kg/injection, schedule: Q01DX Z (ip), vehicle: saline
  T/C: 111 % of control
[14]
  T/C: 86 % of control

## O=c1[nH]c(=O)n(C2CC(O)C(CO)O2)cc1F (stereo not given)
dose: 40.0 mg/kg/injection, schedule: Q01DX Z (ip), vehicle: other
  T/C: 118 % of control
dose: 80.0 mg/kg/injection, schedule: Q01DX Z (ip), vehicle: other
  T/C: 98 % of control
dose: 160.0 mg/kg/injection, schedule: Q01DX Z (ip), vehicle: other
  T/C: 102 % of control

## O=c1[nH]c(=O)n(C2CC(O)C(CO)O2)cc1Br (stereo not given)
dose: 3.75 mg/kg/injection, schedule: Q01DX Z (ip), vehicle: carboxymethylcellulose (CMC)
  T/C: 93 % of control
[9]
  T/C: 120 % of control
dose: 15.0 mg/kg/injection, schedule: Q01DX Z (ip), vehicle: carboxymethylcellulose (CMC)
  T/C: 113 % of control
dose: 30.0 mg/kg/injection, schedule: Q01DX Z (ip), vehicle: carboxymethylcellulose (CMC)
  T/C: 104 % of control
